Assay results published in US20260275280A1, “DIRECTED DIFFERENTIATION PROTOCOLS TO DERIVE BONE FIDE SPINAL SENSORY INTERNEURONS” (THE REGENTS OF THE UNIVERSITY OF CALIFORNIA, priority 2022, published 2026).
Entries after “also recorded” stand apart in the source; their conditions may differ.

Tests used:
[1] = tested on: CHIR-expanded EBs; test: Differentiation of CHIR-expanded EBs on Matrigel (IHC, RT-qPCR at day 10); type: cell-based, mouse; details: DAPT added
Experimental: Embryoid body (EB) differentiation: To induce differentiation, EBs were dissociated into smaller clumps by a 5-7-minute treatment with cold 0.25% Trypsin (Gibco), followed by trituration. Trypsin was neutralized with 1:1 addition of Trypsin inhibitor (Sigma-Aldrich) and cells were pelleted by centrifugation at 1000RPM. Cell pellets were resuspended in N2/B27 medium (without growth factors) and plated onto a Matrigel precoated plate. In our experience, the single cell suspension of 100-150 EBs provided enough cells to seed one 24-well plate. […] At the end of 10 days, multiple neural processes can be visualized by phase contrast microscopy and cultures were either fixed with 4% PFA for immunohistochemistry or lysed to extract RNA in RLT buffer (Qiagen). […] CHIR withdrawal), or DAPT, a pro-differentiation agent (Crawford and Roelink, 2007) (FIG. 7J). […] This strategy was successful at restoring almost all dI identities in cultures taken from EBs both at the earliest passage and at the latest passage assessed (passage 7;

[2] = tested on: Wnt/β-catenin signaling; test: Inhibition of Wnt/β-catenin signaling during dI differentiation (IHC and RT-qPCR at day 9); type: cell-based, mouse
Experimental: (§1) The mouse ESC line, MM13, was routinely maintained in ES cell media (DMEM+20% FBS) with 100u/ml of mouse leukocyte inducing factor (LIF). […] To prepare cells for the differentiation, ESC colonies were dissociated with 0.25% trypsin and plated on gelatin coated plates at 1:10 dilution to reduce MEF transfer. Cells cultured on gelatin coated plates and allowed to proliferate for 1-2 days. To initiate differentiation, cells were plated on 0.1% gelatin coated 24-well CellBIND dishes (Corning) at 20,000 cells/ml density in 0.5 ml/well N2/B27 medium that contains 10 ng/ml basic fibroblast growth factor (bFGF). The N2/B27 medium contains 1:1 portions of Advanced Dulbecco's modified Eagle Media (DMEM) F12 (Hyclone) and Neurobasal media (Thermo Fisher Scientific) supplemented with 0.5×N2, 1×B27 supplement (with Vitamin A), 2 mM L-glutamine, 0.1 mM 2-mercaptoethanol (ME), and 1% BSA. On day 1, small colonies of cells can be observed attached to the bottom of the wells. On day 2, cells were supplemented with 10 ng/ml bFGF and 5 μM CHIR99021 for 24 hours to induce a neuromesodermal identity (Gouti et al., 2014). On day 3, media was changed as follows: for protocol 1, cells were exposed to 100 nM RA for 48 hrs. For protocol 2, 10 ng/ml human recombinant BMP4 (Thermo Fisher Scientific) was added concomitantly with 100 nM RA (RA+BMP4) for 48 hrs. For protocol 3, cells were exposed to 100 nM RA for 24 hrs, followed by a pulse of RA+BMP4 for another 24 hours. To induce terminal differentiation in all three conditions, the medium containing growth factors was replaced with basic N2/B27 medium at day 5, and cell allowed to differentiate to day 9. At the end of the differentiation, the cultures were fixed for immunohistochemical analysis or lysed to obtain RNA for RNA-Seq or quantitative reverse transcriptase PCR analysis.
Immunohistochemistry: For 2d differentiations, adherent cultures were first washed with 1×PBS and fixed with fresh cold 4% PFA for 10 minutes in the well. Following fixation, cultures were washed twice with 1×PBS to remove any remaining PFA. Cells were blocked with 1×PBS with 1% heat inactivated horse serum for 1 hour and primary antibodies are added in the blocking solution for an overnight incubation at 4C. Following washes, species appropriate secondary antibodies (Jackson Immuno Research Laboratories) were added in 1× PBT (PBS+0.1% […]) for 1 hr. The cultures were then washed with 1× PBT to remove traces of secondary antibodies and counterstained with DAPI to stain nuclei. Plates were then imaged on Zeiss LSM800 inverted confocal microscope at 10× magnification.
(§2) Quantitative (a) RT-PCR analysis: RNA was isolated with RNeasy Mini Kit (Qiagen, cat no. 74104), and converted to cDNA using Superscript IV First Strand Synthesis kit (Thermo Fisher Scientific). qRT-PCR was performed using SYBR Green PCR Master Mix (Applied Biosystems) on Roche 480 Lightcycler (Roche). The relative fold expression was calculated using 2-AACt method of comparing the expression of the target gene with that of the housekeeping gene glyceraldehyde 3-phosphate dehydrogenase (Gapdh). All experiments were repeated at least 2-3 times (technical replicates) from at least two independent differentiations (biological replicates), and data is represented as mean±SEM.
To assess the role of canonical Wnt signaling in dI fate specification, we added endo-IWR1 (IWR1e), a small molecule inhibitor which blocks p-catenin function (Chen et al., 2009) to dPs from day 4-6 (FIG. 5A). By day 9, the RA+BMP4 condition robustly induces dlis-dI3s (FIG. 5F-51, 5N-5P).

[3] = tested on: mESCs; test: NMP induction from mESCs with bFGF and CHIR (Sox2/T expression); type: cell-based, mouse; details: day 2 (48 hr bFGF alone) / day 3 (further 24 hr bFGF and CHIR)
Experimental: as §1, with “For protocol 2, 10 ng/ml human recombinant BMP4 (Thermo Fisher Scientific) was added concomitantly with 100 nM RA (RA+BMP4) for 48 hrs. For protocol 3, cells were exposed to 100 nM RA for 24 hrs, followed by a pulse of RA+BMP4 for another 24 hours. To induce terminal differentiation in all three conditions, the medium containing growth factors was replaced with basic N2/B27 medium at day 5, and cell allowed to differentiate to day 9.” left out, “analysis. […]” for “analysis.”

[4] = tested on: hESCs; details: added to the cell dissociation media (Watanabe et al., 2007, Pettinato et al., 2015); cited from earlier work
[5] = tested on: Wnt-signaling genes; test: RT-qPCR of selected Wnt genes at day 5 (RA±BMP4, Noggin); type: cell-based, mouse
Experimental: as §2
Additionally, we also found enriched GO terms related to Wnt signaling across three functional categories (FIG. 4C). […] (FIGS. 4D, 4E, 12B). Selected Wnt-signaling genes were further assessed in a qPCR analysis of day 5 NMPs to validate whether they are BMP4-responsive.

[6] = tested on: mESCs-derived NMPs / NPCs; test: Bulk RNA-Seq differential expression and qRT-PCR after RA or RA+BMP4 treatment; type: cell-based, mouse
Experimental: Bulk-RNA sequencing and data processing: Total cell lysate was obtained in buffer RLT (Qiagen) at different time points from three independent differentiations (biological replicates) conducted parallelly. RNA extraction was performed using RNeasy mini kit (Qiagen) and the quality was determined using Agilent Technologies 2100 Bioanalyzer and only samples with a RIN score >8.0 were sequenced. Stranded libraries were constructed using Universal plus mRNA sequencing kit (NuGEN) and sequenced onto 2 lanes of NovaseqS1 to generate 30 million reads/sample. Obtained reads were aligned to the latest mouse reference genome (mm10) using the STAR spliced read aligner. Pearson correlation and principal component analysis (PCA) was performed to determine the similarities among the samples and replicates. Differentially expressed genes were identified using DESeq and EdgeR package on R platform. The candidate genes were selected using cutoff false discovery rate (FDR <0.05) and log fold change (>2). Differentially expressed gene lists were further subjected to Enrichr, Metascape (Zhou et al., 2019) and DAVID functional annotation tools to identify enriched gene ontology (GO) categories.
as §2
We took advantage of the directed differentiation protocols to investigate the unresolved mechanisms by which RA and BMP direct dI fate specification. To further validate the use of a stem cell model, we first assessed the genetic basis of the fate decisions mediated by RA signaling. During the 24 hr pulse of RA at day 3, Pax3 levels gradually increase, while T expression concomitantly declines (FIG. 12A). […] To identify the transcriptional changes occurring during this first commitment step, we performed bulk RNA-Seq at day 3 (NMP state), day 3.25 (early transcriptional response to RA) and day 4 (dP state1) (FIG. 11B).
We hypothesized that the addition of BMP4 to NPCs in dP state1, directs them to a more dorsal dP state, i.e. dP state2 (FIG. 11A). To define the transcriptional changes occurring after BMP4 addition, we performed bulk RNA-Seq at day 4 (dP state1), day 4.25 (early transcriptional response to RA+BMP4) and at day 5 (dP state2) (FIG. 4A). […] 78 genes, out of 411, were common between both time points (FIGS. 4B, 13B). Focusing on these common genes, we identified enriched functional processes using GO analyses. The GO terms included the BMP signaling pathway (FIG. 4C, Table 3), confirming that the analysis identified BMP responsive genes.

[7] = inhibitor added to RA+BMP4 (protocol 3) from day 4, 48 hours, day 9

For `C[C@H](NC(=O)Cc1cc(F)cc(F)c1)C(=O)N[C@H](C(=O)OC(C)(C)C)c1ccccc1` [DAPT], the “Tuj1+ neurites” value ([1]; day 10, IHC) was “increased sprouting of Tuj^+ neurites; also recorded: modest effect increasing the number of Tuj1+neurites” and the “NeuN and Tubb3 expression compared to DMSO” value ([1]; day 10, RT-qPCR) was “did not significantly augment NeuN and Tubb3 expression”.

For `Oc1nc(-c2ccc(C(F)(F)F)cc2)nc2c1CSCC2` [XAV939], the “dI1 and dI2 differentiation” value [2, 7] was “most strongly suppresses the differentiation of the BMP4-dependent dI1/dI2s”, the dI3 differentiation [2, 7] was “more modest effect on dI3s” and the “dI4, dI5, dI6 fates” value [2, 7] was “increase in the expression of dI4-dI6 specific genes”. For the same molecule, the “dP markers Pax3, Pax7, Olig3” value ([2]; inhibitor added to RA+BMP4 condition) was “prevents both the suppression of Pax7+dPs and induction of Olig3+dPs”.

For “bFGF: human basic fibroblast growth factor”, the “Expression of Sox2 and T” value [3] was “upregulate Sox2 but not T”.

For `C[C@@H](N)[C@H]1CC[C@H](C(=O)Nc2ccncc2)CC1` [Y-27632], the “apoptosis upon dissociation and EB formation” value [4] is listed as “significantly inhibit apoptosis and enhance the EB formation”.

B1: BMP4: human recombinant bone morphogenetic protein 4 (protein, UniProt P12644 293-408, looked up)
Bone morphogenetic protein 4: SPKHHSQRARKKNKNCRRHSLYVDFSDVGWNDWIVAPPGYQAFYCHGDCPFPLADHLNSTNHAIVQTLVNSVNSSIPKACCVPTELSAISMLYLDEYDKVVLKNYQEMVVEGCGCR
In the case of B1, the “expression of selected Wnt-signaling genes” value ([5]; day 5, addition of BMP4 compared to RA alone) is reported as “expression of all genes tested significantly increased”, the “upregulated genes common between both time points” value ([6]; 6 hrs and 24 hrs of BMP4+RA treatment) is reported as 78 genes and the genes upregulated ([6]; 6 hrs of BMP4 addition (day 4.25) vs day 4) is reported as 106 genes. The genes upregulated ([6]; 24 hrs of BMP4 exposure (day 5) vs day 4) was 305 genes.

B2: Noggin: a BMP signaling inhibitor (protein, UniProt Q13253 28-232, looked up)
Noggin: QHYLHIRPAPSDNLPLVDLIEHPDPIFDPKEKDLNETLLRSLLGGHYDPGFMATSPPEDRPGGGGGAAGGAEDLAELDQLLRQRPSGAMPSEIKGLEFSEGLAQGKKQRLSKKLRRKLQMWLWSQTFCPVLYAWNDLGSRFWPRYVKVGSCFSKRSCSVPEGMVCKPSKSVHLTVLRWRCQRRGGQRCGWIPIQYPIISECKCSC
For B2, the “upregulation of Wnt expression” value ([5]; Noggin concomitantly added with BMP4 on day 4) was “upregulation of Wnt expression was suppressed”.
